Results taken from ChEMBL document CHEMBL1134281, “Monosaccharide-linked inhibitors of O(6)-methylguanine-DNA methyltransferase (MGMT): synthesis, molecular modeling, and structure-activity relationships” (J Med Chem, 2001).

Biological target: T1, Methylated-DNA--protein-cysteine methyltransferase (Homo sapiens, UniProt P16455)
T1 sequence (P16455 whole entry): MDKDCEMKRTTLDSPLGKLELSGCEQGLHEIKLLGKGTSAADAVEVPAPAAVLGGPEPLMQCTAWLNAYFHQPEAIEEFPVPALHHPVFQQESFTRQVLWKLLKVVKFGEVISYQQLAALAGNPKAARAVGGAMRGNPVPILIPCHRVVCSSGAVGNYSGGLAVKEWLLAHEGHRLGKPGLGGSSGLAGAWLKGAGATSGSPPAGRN
Experiment: In vitro inhibition of MGMT using cell free extracts from HeLa S3 cells

IC50 | SMILES
0.038 µM | Nc1nc(OCc2ccccc2)c2[nH]nnc2n1
0.009 µM | Nc1nc(OCc2cc(Br)cs2)c2[nH]cnc2n1 [LOMEGUATRIB]
